{"source": "patent US20230272357A1", "about": "“METHODS OF GENOME EDITING INCLUDING CONTROLLED OPENING OF CHROMATIN” (Wisconsin Alumni Research Foundation, priority 2021, published 2023)", "key": {"[1]": {"tested_on": "HIST1H2BJ-GFP reporter iPSC nuclei", "test": "Live in situ nuclear imaging of chromatin condensation (CellProfiler)", "assay_type": "cell-based, human", "settings": "TSA 0, 3.13, 6.25, 12.5 ng/mL, FIG. 1C,D", "description": "Antibodies and Staining: All cells were fixed for 15 minutes with 4% paraformaldehyde in PBS (Sigma-Aldrich, St. Louis, Mo.) and permeabilized with 0.5% Triton™-X (Sigma-Aldrich) for >4 hours at room temperature before staining. Hoechst (H1399; Thermo Fisher Scientific, Waltham, Mass.) was used at 5 μg/mL with 15 min incubation at room temperature to stain nuclei. Primary antibodies were applied overnight at 4° C. in a blocking buffer of 5% donkey serum (Sigma-Aldrich) at the following concentrations: H3K9Me3 (ab8898; Abcam) 1:500; H3K9Ac (39918; Active Motif) 1:100; H3K27Me3 (C36B11; Cell Signaling Technology) 1:200. […]\nAfter streamlining the gene editing strategy, the effect of TSA treatment on the gene editing efficiency of iPSCs was examined The iPSCs were pre-treated with TSA (0, 3.13, 6.25, and 12.5 ng/mL) and their nuclei imaged. […] The images were then used as inputs for a CellProfiler software pipeline to output the chromatin condensation % of the nuclei (data not shown), defined as the ratio of total heterochromatin intensity to the total nuclear intensity. […]"}, "[2]": {"tested_on": "HIST1H2BJ-GFP, AAVS1 (S8, S10), EMX1, VEGFA, TRAC (S2, S3) loci", "test": "Deep sequencing (NGS) of edited iPSCs at open and closed chromatin loci", "assay_type": "cell-based, human", "description": "Next Generation Sequencing of genomic DNA: DNA was isolated from iPSCs by adding 50 μL of DNA QuickExtract™/well (Epicentre) following treatment by Accutase™ and centrifugation. The DNA extract solution was incubated at 65° C. for 15 min, 68° C. for 15 min, and finally 98° C. for 10 min. Genomic PCR was performed according to the manufacturer's instructions using Q5 Hot Start polymerase (NEB). Sequencing indices were added with a second round of PCR using indexing primers (IDT), followed by a purification using AMPure XP magnetic bead purification kit (Beckman Coulter). Samples were pooled and sequenced on an Illumina® MiniSeq at a run length of 1×150 bp or 2×150 bp according to the manufacturer's instructions. Analysis was performed using CRISPR RGEN.\nMultiple gRNA sequences targeting different sites of open (HIST1H2BJ and AAVS1) and closed chromatin (TRAC, VEGFA, EMX1) were selected to investigate if the observed TSA-induced increase in gene-editing efficiency at HIST1H2BJ-GFP locus is specific to the gRNA sequence or the chromatin state of the target locus. To gain a more detailed analysis of gene-edited events in iPSCs, deep sequencing was performed on edited cells obtained after TSA treatment. The genomic DNA was harvested on day 6 after Cas9 RNP delivery. PCR using primers flanking the gRNA target sites was then performed and prepared for next-generation sequencing (NGS) using the Illumina® MiniSeq™ system. […] Corroborating with this observation, we noted an increase in the local chromatin accessibility at the on-target sites upon TSA treatment (Data not shown). […] The highest frequency of indels was found three to four nucleotides upstream from the protospacer adjacent motif (PAM) sequence, consistent with reports of type II CRISPR systems (FIG. 2C,E). Furthermore, edited reads contained higher deletion events (approximately 50-80%) than insertion events (approximately 5-20%). Similar observations were reported in deep sequencing analysis of human cells edited by S. Pyogenes Cas9 (SpyCas9). The percentage of edited reads with Single Nucleotide Polymorphisms (SNPs) decreased upon chromatin decondensation via TSA treatment (FIG. 2F), while the relative distribution of SNPs around the cut site remained similar (data not shown). This is consistent with reports that indicate nucleosomes are enriched in SNPs."}, "[3]": {"settings": "edited iPSCs obtained after TSA treatment, all loci"}, "[4]": {"settings": "seven loci, change upon TSA treatment"}}, "note": "Entries after “also recorded” stand apart in the source; their conditions may differ.", "data": [{"smiles": "CC(/C=C/C(=O)NO)=C\\[C@@H](C)C(=O)c1ccc(N(C)C)cc1", "note": "[TSA, Trichostatin A]", "values": [{"measurement": "Chromatin condensation % (heterochromatin intensity to total nuclear intensity)", "setting": "[1]", "result": "decrease"}, {"measurement": "Deletion events in edited reads", "setting": "[2]; [3]", "result": "50-80%"}, {"measurement": "Insertion events in edited reads", "setting": "[2]; [3]", "result": "5-20%"}, {"measurement": "% edited reads with insertions", "setting": "[2]; [4]", "result": "no significant change; also recorded: did not undergo significant change"}, {"measurement": "% edited reads with only SNPs", "setting": "[2]; [4]", "result": "decreased"}, {"measurement": "% editing efficiency by deep sequencing", "setting": "[2]; seven open and closed loci, day 6, TSA vs 0 ng/mL", "result": "increased"}]}]}
